Assay results from patent US9315522B2, “Antibacterial compounds” (JANSSEN SCIENCES IRELAND UC, priority 2012, dated 2016).
Values after ≈ are worked out from the molar mass of the structure shown.

How the values were obtained:
[1] = Cytotoxicity MTT assay (HELAM); type: cell-based, Human; conditions: human, HelaM cells, read-out: HELAM (222.125) CC50
Experimental: Cytotoxicity of the compounds was evaluated using the MTT assay. Human HelaM cells grown in 96-well plates were exposed to serial dilutions of the tested compounds (final volume of 0.2 ml) and incubated for 72 hours at 37° C. and 5% CO2. Inhibitors are typically varied over the range of 25 to 0.8 μM. The final DMSO concentration in the assay is 0.5%. MTT (3-(4,5-Dimethylthiazol-2-yl)-2,5-diphenyltetrazolium bromide, a tetrazole) was added and reduced to purple formazan only in living cells. Solubilization of the formazan crystals was achieved by adding 100 μl 2-propanol. Cell viability was determined by measuring the absorbance of the reduced formazan, giving a purple color, at 540 nm and 690 nm. The absorbance measured at 690 nm was automatically subtracted from the absorbance at 540 nm, to eliminate the effects of non-specific absorption. The percent cytotoxicity achieved by the compounds was calculated according to standard methods. Cytotoxicity is reported as CC50, the concentration that causes a 50% reduction in cell viability.
The results are depicted in the table(s) below (HELAM).

[2] = test system: S. aureus; test: Antibacterial susceptibility testing, IC90 determination with 10% human serum (STA + 10% HS); type: cell-based, Staphylococcus aureus; conditions: Staphylococcus aureus, human serum at final concentration of 10%, read-out: STA + 10% HS (361.169) IC90
Experimental: (§1) The following bacteria were used: Staphylococcus aureus ATCC 29213, methicillin-resistant Staphylococcus aureus (MRSA) ATCC 700788 and Escherichia coli ATCC 35218. The bacteria used in this study were grown overnight in flasks containing 100 ml Mueller-Hinton broth (Difco cat. nr. 0757-17) in sterile de-ionized water, with shaking, at 37° C. Stocks were store at −70° C. until use.
(§2) Bacteria were incubated on a tryptic soy agar plate containing 5% sheep blood (Becton Dickinson cat. nr. 254053) for 18-24 hours at 35° C. in aerobic conditions (first passage). For the second passage, fresh Mueller-Hinton broth is inoculated with 5-10 colonies and grown overnight at 35° C. until turbidity (reaching log-phase) in aerobic conditions is reached. The bacterial suspension is then adjusted to 0.5 McFarland density and further diluted 1:100 in Mueller Hinton broth medium. This is used as inoculum.
(§3) MIC assays were performed by the broth microdilution method in a 96-well format (flat-bottom microtitre plates) with a final volume of 0.1 ml Mueller Hinton broth containing two-fold serial dilutions of compounds and inoculated with 5×10^5 CFU/ml of bacteria (standard inoculum size according to CLSI guidelines). Inhibitors are typically varied over the range of 63 to 0.49 μM. The final DMSO concentration in the assay was 1.25% (maximum tolerable DMSO concentration=6%). In the assays where the effect of human serum on the activity of the compounds against S. aureus was tested, human serum was added at a final concentration of 10%. The plates were incubated at 35° C. for 16-20 hours. At the end of incubation the bacterial growth was quantified fluorometrically. For this, resazurin was added to all wells and the plates were re-incubated. The incubation time is dependent on the type of bacteria. A change in color from blue to pink indicated the growth of bacteria. The fluorescence was read in computer-controlled fluorometer (Fluoroskan Ascent FL, Labsystems) at an excitation wavelength 540 nm and an emission wavelength of 590 nm. The % growth inhibition achieved by the compounds was calculated according to standard methods. The IC90 (expressed in μg/ml) was defined as the 90% inhibitory concentration for bacterial growth. A panel of reference compounds were simultaneously tested for QC approval.
The results are depicted in the table(s) below (STA+10% HS).

[3] = test system: Staphylococcus aureus ATCC 29213; test: Antibacterial susceptibility testing, IC90 determination (STA); type: cell-based; conditions: resazurin; for IC90: Staphylococcus aureus, ATCC29213, Staphylococcus aureus ATCC 29213, broth microdilution, read-out: STA (361.159) IC90
Experimental: as §1, §2
The result(s) are depicted the table below (for STA ATCC 29213).
as §3

[4] = target: T1, S. aureus ATCC 29213 FabI (Staphylococcus aureus, UniProt Q6GI75); test: Staphylococcus aureus FabI enzyme inhibition assay; type: biochemical; conditions: read-out: FabI (300.235) IC50 (converted)
T1 sequence (Q6GI75 1-256): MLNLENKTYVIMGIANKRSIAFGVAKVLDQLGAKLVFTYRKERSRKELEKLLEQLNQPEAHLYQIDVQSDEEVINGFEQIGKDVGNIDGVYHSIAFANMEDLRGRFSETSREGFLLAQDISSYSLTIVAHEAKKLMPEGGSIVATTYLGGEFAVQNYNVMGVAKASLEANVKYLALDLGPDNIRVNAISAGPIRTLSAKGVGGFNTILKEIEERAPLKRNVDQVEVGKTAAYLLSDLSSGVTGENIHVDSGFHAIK
Experimental: Y.1 FabI Enzyme Inhibition: Staphylococcus aureus FabI Enzyme Inhibition Assay
FabI enzyme inhibition assays were carried out in half-area, 384-well microtitre plates. Compounds were evaluated in 40-μl assay mixtures containing 100 mM NaADA, pH 6.5 (ADA=N-[2-acetamido]-2iminodiacetic acid), 250 μM crotonoyl-CoA, 625 μM NADH and 50 μg/ml S. aureus ATCC 29213 FabI. Inhibitors were typically varied over the range of 50 to 0.39 μM. The reaction mixtures were incubated for 30 minutes at room temperature and the reaction was stopped by adding 200 mM Tris buffer (pH 9.0) to create a pH-shift. The consumption of NADH was monitored by measuring the change in absorbance at […]. By comparing sample readings to those of negative (absence of compound) and positive (absence of enzyme) controls, the percent inhibition of enzymatic activity of the compounds was determined A best-fit curve is fitted by a minimum of squares method. From this an IC50-value (expressed in μg/ml), resulting in 50% inhibition of enzymatic activity, was obtained.

Compound | CC50 at 72 h [1] [µg/mL] | IC90 [2] [µg/mL] | IC90 [3] [µg/mL] | IC50 [4] [µM] | melting point [°C] | STA (361.159) IC90 ([3]; Staphylococcus aureus ATCC 29213, broth microdilution) [µg/mL]
O=C1CNCc2cc(/C=C/C(=O)N3C[C@H]4CC(c5ccccc5)=C[C@H]4C3)cnc2N1 (single isomer, unassigned) [compound 46] | > 4.05 | 0.27 | 0.23 (≈ 0.574 µM) | 0.924 |  | 
O=C1Nc2ncc(/C=C/C(=O)N3CC4C=C(c5ccccc5)CC4C3)cc2Cn2cncc21 (stereo not shown) [Compound K11] |  |  |  |  | 220 to 270 | 
COc1cncc(C(=O)Nc2ccc(/C=C/C(=O)N3CC4C=C(c5ccccc5)CC4C3)cn2)c1 (stereo not shown) [Cpd. No. 7] | > 11.7 | 0.42 | < 0.22 | 2.4 |  | 
Cc1cc(N)ncc1/C=C/C(=O)N1CC2C=C(c3ccccc3)CC2C1 (stereo not shown) [compound 20] | 4.55 (≈ 13.2 µM) | > 21.8 | > 21.8 | 8.31 |  | 
Cc1nc(N)ccc1/C=C/C(=O)N1CC2C=C(c3ccccc3)CC2C1 (stereo not shown) [compound 21] | 3.11 (≈ 9 µM) | > 21.8 | > 21.8 | 6.77 |  | 
N#Cc1cc(N)ncc1/C=C/C(=O)N1CC2C=C(c3ccccc3)CC2C1 (stereo not shown) [compound 22] | > 8.95 | > 22.5 | > 22.5 | ~33.9 |  | 
COc1nc(NC(C)=O)ccc1/C=C/C(=O)N1CC2C=C(c3ccccc3)CC2C1 (stereo not shown) [compound 23] | > 10.1 | > 25.5 | > 25.5 | 15.5 |  | 
O=C(Nc1ccc(/C=C/C(=O)N2CC3C=C(c4ccccc4)CC3C2)cn1)c1ccccn1 (stereo not shown) [compound 24] | 7.76 (≈ 17.8 µM) | > 27.5 | > 27.5 | 3.46 |  | 
Cc1nc(NC(=O)c2cccnc2)ccc1/C=C/C(=O)N1CC2C=C(c3ccccc3)CC2C1 (stereo not shown) [compound 25] | > 11.3 | > 28.4 | > 28.4 | 14.4 |  | 
Cc1cc(NC(=O)c2cccnc2)ncc1/C=C/C(=O)N1CC2C=C(c3ccccc3)CC2C1 (stereo not shown) [compound 26] | > 11.3 | > 28.4 | > 28.4 | 10.2 |  | 
N#Cc1cc(NC(=O)c2cccnc2)ncc1/C=C/C(=O)N1CC2C=C(c3ccccc3)CC2C1 (stereo not shown) [compound 27] | > 11.6 | > 29.1 | > 29.1 | 20.9 |  | 
COc1ccc(C(=O)Nc2ccc(/C=C/C(=O)N3CC4C=C(c5ccccc5)CC4C3)cn2)c(OC)n1 (stereo not shown) [compound 28] | 2.99 (≈ 6.02 µM) | > 31.3 | > 31.3 | 14.8 |  | 
O=C(Nc1ccc(/C=C/C(=O)N2CC3C=C(c4ccccc4)CC3C2)cn1)c1cc(F)c(Cl)nc1Cl (stereo not shown) [compound 29] | 2.34 (≈ 4.47 µM) | > 33 | > 33 | 9.32 |  | 
O=C(Nc1ncc(/C=C/C(=O)N2CC3C=C(c4ccccc4)CC3C2)cc1CN1CCOCC1)c1cccnc1 (stereo not shown) [compound 34] | 12.6 (≈ 23.4 µM) | > 33.8 | > 33.8 | 2.95 |  | 
O=C1CNCc2cc(/C=C/C(=O)N3CC4C=C(c5ccsc5)CC4C3)cnc2N1 (stereo not shown) [compound 40] | > 10.2 | < 0.19 | < 0.19 | 0.959 |  | 
CC1(C)Oc2cc(/C=C/C(=O)N3CC4C=C(c5ccccc5)CC4C3)cnc2NC1=O (stereo not shown) [compound 42] |  | < 0.2 | < 0.2 |  |  | 
CC1(C)Oc2cc(/C=C/C(=O)N3CC4C=C(c5ccccc5)CC4C3)cnc2NC1=O (stereo not shown) [compound 43] |  |  |  |  |  | <0.20
CC1(C)Oc2cc(/C=C/C(=O)N3CC4C=C(c5nccs5)CC4C3)cnc2NC1=O (stereo not shown) [compound 44] |  | < 0.2 | < 0.2 |  |  | 
Cn1nccc1C1=CC2CN(C(=O)/C=C/c3cnc4c(c3)OC(C)(C)C(=O)N4)CC2C1 (stereo not shown) [compound 45] |  | < 0.2 | < 0.2 |  |  | 
C=CCN1C[C@@H]2CN(C(=O)/C=C/c3cnc4c(c3)CN(C)CC(=O)N4)C[C@@H]2C1 [compound 61] | > 9.58 | > 24.1 | > 24.1 | > 50.1 |  | 
CN1CC(=O)Nc2ncc(/C=C/C(=O)N3C[C@@H]4CN(c5cccnc5)C[C@@H]4C3)cc2C1 [compound 62] | > 10.5 | > 26.4 | > 26.4 | 7.41 |  | 
O=C1Nc2ncc(/C=C/C(=O)N3CC4C=C(c5ccccc5)CC4C3)cc2Cn2cncc21 (stereo not shown) [compound 71] | 6.78 (≈ 15.5 µM) | < 0.21 | < 0.21 | 1.1 |  | 
CC(=O)N1CCN2Cc3cc(/C=C/C(=O)N4CC5C=C(c6ccncc6)CC5C4)cnc3NC(=O)C2C1 (stereo not shown) [compound 84] | > 12.5 | 0.87 | 0.92 (≈ 1.85 µM) | 1.34 |  | 
O=C1Nc2ncc(/C=C/C(=O)N3CC4C=C(c5ccccc5)CC4C3)cc2Cn2nccc21 (stereo not shown) [compound 86] |  | 3.81 | 3.47 (≈ 7.93 µM) | 1.83 |  | 
O=C1Nc2ncc(/C=C/C(=O)N3C[C@@H]4CN(c5ccccc5)C[C@@H]4C3)cc2CN2CCOCC12 (stereo partly shown) [compound 87] |  |  |  |  | > 250 | 
CCOC(=O)N1CCN2Cc3cc(/C=C/C(=O)N4CC5C=C(c6ccccc6)CC5C4)cnc3NC(=O)C2C1 (stereo not shown) [compound 88] |  |  |  |  | 242 to 267 | 
